Laboratory results reported in US20250353864A1, “INDAZOLE CONTAINING MACROCYCLES AND THEIR USE” (BLOSSOMHILL THERAPEUTICS, INC., priority 2022, published 2025).
Where two headings read alike, the source gives them in different places.

Assays:
[1] = cc_pd bond, 2.0 h
[2] = biological target: EGFR Δ746-750 mutant (Homo sapiens (Human), UniProt P00533, DEL746-750); assay: HotSpot radiometric kinase assay, EGFR Δ746-750 mutant; assay type: biochemical; conditions: 10 μM ATP
Outline: (§1)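 Compounds were preincubated ~20 min with kinase/substrate in pH 7.5 Hepes buffer (MgCl2, EGTA, Brij35, BSA, Na3VO4, DTT, 1% DMSO), then ATP plus 33P-ATP was added to 10 μM final. After 120 min at room temperature, reactions were spotted on P81 filters and washed; IC50 values came from curve fits.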

[3] = biological target: CLK2 (Homo sapiens (Human), UniProt P49760); assay: Inhibition of CLK2 kinase activity evaluated at Nanosyn (ADP-Glo); assay type: biochemical; conditions: ADP-Glo luminescence
Outline: (§2)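 ADP-Glo luminescence (40 min depletion, 10 min detection) quantifies ADP from ATP-initiated phosphorylation of substrate by each CLK isoform in HEPES pH 7.5 buffer, 1% DMSO, assay-specific incubation. %-inhibition calculated against uninhibited and enzyme-free controls.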

[4] = biological target: EGFR L858R/T790M mutant (Homo sapiens (Human), UniProt P00533, L858R/T790M); assay: HotSpot radiometric kinase assay, EGFR L858R/T790M mutant; assay type: biochemical; conditions: 10 μM ATP
Outline: as §1

[5] = biological target: EGFR (D770_N771insNPG) (Homo sapiens (Human), UniProt P00533, INS770NPG); assay: HotSpot radiometric kinase assay, EGFR (D770_N771insNPG); assay type: biochemical; conditions: 10 μM ATP, read-out: EGFR (Δ770_N771insNPG) IC50
Outline: as §1

[6] = biological target: EGFR WT (Homo sapiens (Human), UniProt P00533); assay: HotSpot radiometric kinase assay (Reaction Biology), EGFR WT; assay type: biochemical; conditions: 10 μM ATP
Outline: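 IC50 values derive from curve fits of 33P incorporation measured by P81 filter binding. ATP was 10 μM final; incubation lasted 120 min at room temperature after ~20 min compound preincubation.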

[7] = biological target: EGFR L858R mutant (Homo sapiens (Human), UniProt P00533, L858R); assay: HotSpot radiometric kinase assay, EGFR L858R mutant; assay type: biochemical; conditions: 10 μM ATP
Outline: as §1

[8] = biological target: EGFR L858R/T790M/C797S mutant (Homo sapiens (Human), UniProt P00533, C797S/L858R/T790M); assay: HotSpot radiometric kinase assay, EGFR L858R/T790M/C797S mutant; assay type: biochemical; conditions: 10 μM ATP
Outline: as §1

[9] = biological target: CLK4 (Homo sapiens (Human), UniProt Q9HAZ1); assay: Inhibition of CLK4 kinase activity evaluated at Nanosyn (ADP-Glo); assay type: biochemical; conditions: ADP-Glo luminescence
Outline: as §2

[10] = biological target: EGFR Δ746-750/C797S mutant (Homo sapiens (Human), UniProt P00533, C797S/DEL746-750); assay: HotSpot radiometric kinase assay, EGFR Δ746-750/C797S mutant; assay type: biochemical; conditions: 10 μM ATP
Outline: as §1

[11] = biological target: CLK1 (Homo sapiens (Human), UniProt P49759); assay: Inhibition of CLK1 kinase activity evaluated at Nanosyn (ADP-Glo); assay type: biochemical; conditions: ADP-Glo luminescence
Outline: as §2

[12] = biological target: ALK (Homo sapiens (Human), UniProt Q9UM73); assay: HotSpot radiometric kinase assay, inhibition of ALK kinase activity; assay type: biochemical; conditions: 10 μM ATP
Experimental: Briefly, specific kinase/substrate pairs along with required cofactors were prepared in reaction buffer; 20 mM Hepes pH 7.5, 10 mM […], 1 mM EGTA, 0.02% Brij35, 0.02 mg/ml BSA, 0.1 mM Na3VO4, 2 mM DTT, 1% DMSO. Compounds were delivered into the reaction, followed […] later by addition of a mixture of ATP (Sigma, St. Louis MO) and ^33P ATP (Perkin Elmer, Waltham MA) to a final concentration of 10 μM. Reactions were carried out at room temperature for 120 min, followed by spotting of the reactions onto P81 ion exchange filter paper (Whatman Inc., Piscataway, NJ). Unbound phosphate was removed by extensive washing of filters in 0.75% phosphoric acid. […] IC50 values and curve fits were obtained using Prism (GraphPad Software).

[13] = biological target: CLK3 (Homo sapiens (Human), UniProt P49761); assay: Inhibition of CLK3 kinase activity evaluated at Nanosyn (ADP-Glo); assay type: biochemical; conditions: ADP-Glo luminescence
Outline: as §2

Chain of EGFR Δ746-750/C797S mutant (P00533 other isoform, or with tags, fused parts or gaps C797S/del 1-668/del 746-750 limits assumed): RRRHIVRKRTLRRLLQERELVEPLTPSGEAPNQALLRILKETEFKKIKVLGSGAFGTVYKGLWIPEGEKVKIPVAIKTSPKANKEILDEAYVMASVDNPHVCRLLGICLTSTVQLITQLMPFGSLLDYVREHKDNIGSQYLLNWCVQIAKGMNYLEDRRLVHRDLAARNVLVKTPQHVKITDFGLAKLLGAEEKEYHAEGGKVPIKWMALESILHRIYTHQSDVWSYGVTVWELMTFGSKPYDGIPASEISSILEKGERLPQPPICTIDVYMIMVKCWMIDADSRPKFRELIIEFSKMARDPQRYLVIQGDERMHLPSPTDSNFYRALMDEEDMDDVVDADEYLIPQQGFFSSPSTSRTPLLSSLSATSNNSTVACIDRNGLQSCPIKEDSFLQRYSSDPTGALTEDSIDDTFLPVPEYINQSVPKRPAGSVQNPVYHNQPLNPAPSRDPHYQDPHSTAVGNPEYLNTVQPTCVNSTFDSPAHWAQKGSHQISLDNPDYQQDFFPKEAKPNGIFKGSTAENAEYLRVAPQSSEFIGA
Chain of CLK1 (P49759 whole entry): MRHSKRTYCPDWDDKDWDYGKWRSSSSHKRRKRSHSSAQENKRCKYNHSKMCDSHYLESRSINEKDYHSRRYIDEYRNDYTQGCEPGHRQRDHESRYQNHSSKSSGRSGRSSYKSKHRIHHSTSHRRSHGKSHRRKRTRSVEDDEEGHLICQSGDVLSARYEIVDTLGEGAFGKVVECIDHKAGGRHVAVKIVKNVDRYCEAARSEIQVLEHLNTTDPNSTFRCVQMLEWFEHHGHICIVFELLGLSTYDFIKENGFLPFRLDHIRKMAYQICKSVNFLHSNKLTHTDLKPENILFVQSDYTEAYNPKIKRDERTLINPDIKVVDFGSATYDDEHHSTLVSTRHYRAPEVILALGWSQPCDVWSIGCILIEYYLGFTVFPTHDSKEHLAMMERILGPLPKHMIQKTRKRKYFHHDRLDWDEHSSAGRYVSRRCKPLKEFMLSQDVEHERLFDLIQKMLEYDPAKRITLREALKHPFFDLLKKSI
Chain of EGFR (D770_N771insNPG) (P00533 other isoform, or with tags, fused parts or gaps del 1-668/ins NPG behind 770 limits assumed): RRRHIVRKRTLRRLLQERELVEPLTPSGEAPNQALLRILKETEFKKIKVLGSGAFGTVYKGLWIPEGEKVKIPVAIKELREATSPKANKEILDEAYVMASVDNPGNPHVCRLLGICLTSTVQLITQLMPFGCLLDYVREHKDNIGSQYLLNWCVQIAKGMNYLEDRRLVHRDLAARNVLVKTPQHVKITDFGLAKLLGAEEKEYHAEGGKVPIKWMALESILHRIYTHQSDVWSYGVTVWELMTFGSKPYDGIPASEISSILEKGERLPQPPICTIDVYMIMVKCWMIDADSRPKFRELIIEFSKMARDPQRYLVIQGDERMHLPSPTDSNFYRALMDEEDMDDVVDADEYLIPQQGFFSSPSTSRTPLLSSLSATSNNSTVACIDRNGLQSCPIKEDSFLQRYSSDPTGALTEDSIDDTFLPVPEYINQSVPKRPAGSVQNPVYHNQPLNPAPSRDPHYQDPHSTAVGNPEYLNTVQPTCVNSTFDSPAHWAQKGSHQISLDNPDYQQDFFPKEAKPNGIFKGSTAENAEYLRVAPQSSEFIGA
Chain of EGFR Δ746-750 mutant (P00533 other isoform, or with tags, fused parts or gaps del 1-668/del 746-750 limits assumed): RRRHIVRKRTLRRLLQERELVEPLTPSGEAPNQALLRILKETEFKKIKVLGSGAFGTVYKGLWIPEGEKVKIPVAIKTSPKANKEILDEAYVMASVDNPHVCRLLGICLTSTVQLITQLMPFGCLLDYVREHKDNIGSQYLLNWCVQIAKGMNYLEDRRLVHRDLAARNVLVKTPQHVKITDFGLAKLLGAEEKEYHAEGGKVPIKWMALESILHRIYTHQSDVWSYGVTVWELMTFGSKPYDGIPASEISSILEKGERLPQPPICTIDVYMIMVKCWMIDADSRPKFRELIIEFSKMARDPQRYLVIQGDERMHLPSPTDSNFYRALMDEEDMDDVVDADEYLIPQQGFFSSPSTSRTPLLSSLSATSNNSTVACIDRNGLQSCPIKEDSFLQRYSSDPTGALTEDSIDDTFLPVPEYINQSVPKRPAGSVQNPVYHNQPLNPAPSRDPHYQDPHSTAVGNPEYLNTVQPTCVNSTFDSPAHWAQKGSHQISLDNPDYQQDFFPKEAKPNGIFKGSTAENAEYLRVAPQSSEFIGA
Chain of EGFR L858R/T790M mutant (P00533 25-1210 T790M/L858R): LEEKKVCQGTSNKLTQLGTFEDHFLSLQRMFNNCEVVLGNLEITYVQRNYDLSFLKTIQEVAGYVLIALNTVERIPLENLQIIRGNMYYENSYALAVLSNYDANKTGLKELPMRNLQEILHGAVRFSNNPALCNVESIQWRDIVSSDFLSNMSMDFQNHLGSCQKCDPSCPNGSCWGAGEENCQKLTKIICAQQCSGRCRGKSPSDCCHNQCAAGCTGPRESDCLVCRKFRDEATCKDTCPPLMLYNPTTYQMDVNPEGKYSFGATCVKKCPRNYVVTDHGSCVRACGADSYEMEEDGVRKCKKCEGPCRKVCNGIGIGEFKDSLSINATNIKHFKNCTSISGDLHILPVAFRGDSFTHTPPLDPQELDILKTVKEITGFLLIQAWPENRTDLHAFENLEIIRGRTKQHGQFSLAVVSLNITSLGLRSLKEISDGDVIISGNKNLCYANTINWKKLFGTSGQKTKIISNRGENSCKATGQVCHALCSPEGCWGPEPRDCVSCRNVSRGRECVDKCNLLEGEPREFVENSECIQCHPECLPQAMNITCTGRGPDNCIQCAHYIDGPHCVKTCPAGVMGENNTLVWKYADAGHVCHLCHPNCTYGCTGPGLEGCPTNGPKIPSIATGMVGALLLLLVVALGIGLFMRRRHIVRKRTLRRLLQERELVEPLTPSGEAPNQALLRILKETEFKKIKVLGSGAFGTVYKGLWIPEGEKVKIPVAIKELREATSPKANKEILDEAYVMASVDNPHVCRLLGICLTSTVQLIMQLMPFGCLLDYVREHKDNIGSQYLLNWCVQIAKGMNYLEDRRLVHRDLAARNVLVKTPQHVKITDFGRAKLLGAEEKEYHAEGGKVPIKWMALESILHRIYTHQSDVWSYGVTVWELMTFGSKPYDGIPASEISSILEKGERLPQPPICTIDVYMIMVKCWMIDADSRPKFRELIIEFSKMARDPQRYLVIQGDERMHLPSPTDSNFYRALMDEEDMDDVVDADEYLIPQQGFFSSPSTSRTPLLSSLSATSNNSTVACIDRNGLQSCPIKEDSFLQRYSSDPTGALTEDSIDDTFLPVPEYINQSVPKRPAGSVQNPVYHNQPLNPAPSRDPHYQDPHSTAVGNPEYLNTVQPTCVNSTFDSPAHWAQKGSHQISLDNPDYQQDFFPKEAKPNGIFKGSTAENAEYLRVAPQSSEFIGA
Chain of ALK (Q9UM73 19-1620): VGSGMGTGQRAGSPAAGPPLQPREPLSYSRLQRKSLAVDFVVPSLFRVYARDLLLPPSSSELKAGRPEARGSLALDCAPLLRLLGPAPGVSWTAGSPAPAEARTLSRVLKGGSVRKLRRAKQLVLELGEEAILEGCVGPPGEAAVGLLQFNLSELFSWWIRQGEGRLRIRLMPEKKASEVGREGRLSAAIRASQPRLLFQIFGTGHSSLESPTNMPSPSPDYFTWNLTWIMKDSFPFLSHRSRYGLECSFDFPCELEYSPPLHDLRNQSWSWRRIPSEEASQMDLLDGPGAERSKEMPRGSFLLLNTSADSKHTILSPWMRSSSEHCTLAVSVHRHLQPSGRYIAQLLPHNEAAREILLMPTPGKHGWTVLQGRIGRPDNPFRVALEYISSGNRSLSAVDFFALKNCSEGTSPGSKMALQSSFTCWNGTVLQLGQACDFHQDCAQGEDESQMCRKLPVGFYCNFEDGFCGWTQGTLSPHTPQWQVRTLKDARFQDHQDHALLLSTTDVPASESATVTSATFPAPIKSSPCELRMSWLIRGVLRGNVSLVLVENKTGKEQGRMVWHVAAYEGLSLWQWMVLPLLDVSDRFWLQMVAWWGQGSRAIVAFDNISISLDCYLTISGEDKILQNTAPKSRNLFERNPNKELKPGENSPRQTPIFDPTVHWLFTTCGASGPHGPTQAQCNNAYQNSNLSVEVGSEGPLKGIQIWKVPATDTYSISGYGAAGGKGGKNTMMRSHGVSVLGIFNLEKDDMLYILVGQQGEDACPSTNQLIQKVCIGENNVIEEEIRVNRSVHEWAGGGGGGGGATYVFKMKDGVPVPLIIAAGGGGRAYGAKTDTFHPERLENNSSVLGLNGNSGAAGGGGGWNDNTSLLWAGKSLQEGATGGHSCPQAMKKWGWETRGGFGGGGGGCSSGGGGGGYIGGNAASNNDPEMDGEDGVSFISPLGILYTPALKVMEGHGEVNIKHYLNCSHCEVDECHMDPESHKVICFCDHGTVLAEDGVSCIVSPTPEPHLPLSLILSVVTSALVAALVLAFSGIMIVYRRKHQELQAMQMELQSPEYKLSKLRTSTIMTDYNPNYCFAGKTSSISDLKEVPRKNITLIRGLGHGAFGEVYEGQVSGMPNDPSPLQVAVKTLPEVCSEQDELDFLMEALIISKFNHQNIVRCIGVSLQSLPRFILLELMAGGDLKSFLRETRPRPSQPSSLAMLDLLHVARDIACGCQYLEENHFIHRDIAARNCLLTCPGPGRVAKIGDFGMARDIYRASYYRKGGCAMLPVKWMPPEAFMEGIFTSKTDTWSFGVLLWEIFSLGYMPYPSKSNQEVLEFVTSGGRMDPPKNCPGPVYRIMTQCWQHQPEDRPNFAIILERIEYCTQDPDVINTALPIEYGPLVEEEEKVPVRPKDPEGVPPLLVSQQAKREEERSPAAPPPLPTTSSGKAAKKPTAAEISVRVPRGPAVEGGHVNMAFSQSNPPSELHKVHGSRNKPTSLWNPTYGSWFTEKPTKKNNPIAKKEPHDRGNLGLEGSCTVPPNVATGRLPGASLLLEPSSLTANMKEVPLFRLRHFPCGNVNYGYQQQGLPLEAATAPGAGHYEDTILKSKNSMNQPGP

| SMILES | ring closure, isolated yield ([1]; from Cn1ncc(-c2ccc3c(c2)c(/C=C/B2OC(C)(C)C(C)(C)O2)nn3C2CCCCO2)c1OCCN1CC[C@@H](Oc2ccccc2I)C1=O, 17-membered ring, XPhos Pd G4/K3PO4, DMA, 25.0 mM, 80.0 °C) | ring closure, isolated yield ([1]; from Cn1ncc(-c2ccc3c(c2)c(/C=C/B2OC(C)(C)C(C)(C)O2)nn3C2CCCCO2)c1OCCN1CC[C@@H](Oc2cc(Br)ccc2I)C1=O, 17-membered ring, Pd(dppf)Cl2.CH2Cl2/K2CO3, dioxane/H2O 5:1, 19.4 mM, 90.0 °C) | ring closure, isolated yield ([1]; from Cc1nn(C)c(OC(C)CN(C)Cc2c(-c3ccc4c(c3)c(/C=C/B3OC(C)(C)C(C)(C)O3)nn4C3CCCCO3)cnn2C)c1I, 15-membered ring, XPhos Pd G4/K3PO4, DMA, 66.5 mM, 80.0 °C) | ring closure, isolated yield ([1]; from C=Cc1nn(C2CCCCO2)c2ccc(-c3cnn(C)c3O[C@H](CN(C)Cc3c(I)c(OC(C)C)nn3CCO[Si](C)(C)C(C)(C)C)C(=O)OC)cc12, 15-membered ring, Pd(OAc)2/TBAC/TEA, DMF, 11.6 mM, 100.0 °C) | IC50 [2] | IC50 [3] | IC50 [4] | IC50 [5] | IC50 [6] | IC50 [7] | IC50 [8] | IC50 [9] | IC50 [10] | IC50 [11] | IC50 [12] | IC50 [13] |
| --- | --- | --- | --- | --- | --- | --- | --- | --- | --- | --- | --- | --- | --- | --- | --- | --- |
| Cn1ncc2c1OCCN1CC[C@@H](Oc3ccccc3/C=C/c3nn(C4CCCCO4)c4ccc-2cc34)C1=O (stereo partly shown) | 36% | – | – | – | – | – | – | – | – | – | – | – | – | – | – | – |
| Cn1ncc2c1OCCN1CC[C@@H](Oc3cc(Cl)ccc3C=Cc3nn(C4CCCCO4)c4ccc-2cc34)C1=O (stereo partly shown) | – | 38% | – | – | – | – | – | – | – | – | – | – | – | – | – | – |
| Cc1nn(C)c2c1/C=C/c1nn(C3CCCCO3)c3ccc(cc13)-c1cnn(C)c1CN(C)CC(C)O2 (stereo not shown) | – | – | 24% | – | – | – | – | – | – | – | – | – | – | – | – | – |
| COC(=O)[C@H]1CN(C)Cc2c(c(OC(C)C)nn2CCO[Si](C)(C)C(C)(C)C)/C=C/c2nn(C3CCCCO3)c3ccc(cc23)-c2cnn(C)c2O1 (stereo partly shown) | – | – | – | 47% | – | – | – | – | – | – | – | – | – | – | – | – |
| C[C@H]1CN(C)Cc2c(c(C#N)nn2C)/C=C/c2n[nH]c3ccc(cc23)-c2cnn(C)c2O1 [Example 159, (10S,17E)-8,10,12,14-tetramethyl-2,10,11,12,13,14-hexahydro-8H-3,5-ethenotripyrazolo[3,4-f:3′,4′-j:4″,3″-n][1,4]oxazacyclopentadecine-16-carbonitrile] | – | – | – | – | 27 nM | 0.07 nM | 1.54 nM | 116 nM | 160 nM | 34.7 nM | 0.74 nM | 0.38 nM | 14.1 nM | 0.14 nM | 3.72 nM | 1000 nM |
| C[C@H]1CN(C)Cc2c(c(OCC#N)nn2C)/C=C/c2n[nH]c3ccc(cc23)-c2cnn(C)c2O1 [Example 163, {[(10S,17E)-8,10,12,14-tetramethyl-2,10,11,12,13,14-hexahydro-8H-3,5-ethenotripyrazolo[3,4-f:3′,4′-j:4″,3″-n][1,4]oxazacyclopentadecin-16-yl]oxy}acetonitrile] | – | – | – | – | 7.33 nM | 0.06 nM | 0.85 nM | 52 nM | 29.6 nM | 8.2 nM | 0.86 nM | 0.63 nM | 4.72 nM | 0.28 nM | 1.13 nM | 215 nM |
| CCOc1nn(CCO)c2c1/C=C/c1n[nH]c3ccc(cc13)-c1cnn(C)c1O[C@@H](C)CN(C)C2 [Example 119, 2-[(10S,17E)-16-ethoxy-8,10,12-trimethyl-2,8,10,11,12,13-hexahydro-14H-3,5-ethenotripyrazolo[3,4-f:3′,4′-j:4″,3″-n][1,4]oxazacyclopentadecin-14-yl]ethan-1-ol] | – | – | – | – | 0.63 nM | 0.04 nM | 0.26 nM | 8.5 nM | 2.34 nM | 0.61 nM | 2.12 nM | 0.33 nM | 1.25 nM | 0.14 nM | 1.05 nM | 19.4 nM |
| CC(C)Oc1nn(CCO)c2c1/C=C/c1n[nH]c3ccc(cc13)-c1cnn(C)c1O[C@@H](C)CN(C)C2 [Example 147, 2-{(10S,17E)-8,10,12-trimethyl-16-[(propan-2-yl)oxy]-2,8,10,11,12,13-hexahydro-14H-3,5-ethenotripyrazolo[3,4-f:3′,4′-j:4″,3″-n][1,4]oxazacyclopentadecin-14-yl}ethan-1-ol] | – | – | – | – | 0.59 nM | 0.02 nM | 0.11 nM | 9.08 nM | 3.16 nM | 0.44 nM | 0.19 nM | 0.32 nM | 0.39 nM | 0.13 nM | 0.99 nM | 5.21 nM |
| CCN1Cc2c(c(OC(C)C)nn2[C@@H](C)CO)/C=C/c2n[nH]c3cc(F)c(cc23)-c2cnn(C)c2O[C@@H](C)C1 [Example 219, (2S)-2-{(10S,17E)-12-ethyl-19-fluoro-8,10-dimethyl-16-[(propan-2-yl)oxy]-2,8,10,11,12,13-hexahydro-14H-3,5-ethenotripyrazolo[3,4-f:3′,4′-j:4″,3″- n][1,4]oxazacyclopentadecin-14-yl}propan-1-ol] | – | – | – | – | 3.02 nM | 4.51 nM | 5.3 nM | 21.2 nM | 7.25 nM | 4.73 nM | 3.84 nM | 5.62 nM | 5.13 nM | 2.05 nM | 1.31 nM | 146 nM |
| Cc1onc2c1/C=C/c1n[nH]c3ccc(cc13)-c1cnn(C)c1O[C@@H](C)CN(C)C2 [Example 134, (10S,17E)-8,10,12,16-tetramethyl-2,8,10,11,12,13-hexahydro-3,5-etheno[1,2]oxazolo[3,4-f]dipyrazolo[3,4-j:4′,3′-n][1,4]oxazacyclopentadecine] | – | – | – | – | 173 nM | 0.19 nM | 24 nM | > 1000 nM | 1210 nM | 182 nM | 12.6 nM | 0.61 nM | 90.8 nM | 0.29 nM | 21.6 nM | 230 nM |
| CC(C)Oc1nn([C@@H](C)CO)c2c1/C=C/c1n[nH]c3cc(F)c(cc13)-c1cnn(C)c1O[C@@H](C)CN(C)C2 [Example 200, (2S)-2-{(10S,17E)-19-fluoro-8,10,12-trimethyl-16-[(propan-2-yl)oxy]-2,8,10,11,12,13-hexahydro-14H-3,5-ethenotripyrazolo[3,4-f:3′,4′-j:4″,3″-n][1,4]oxazacyclopentadecin-14-yl}propan-1-ol] | – | – | – | – | 4.08 nM | 1 nM | 1.41 nM | 59.9 nM | 6.46 nM | 2.01 nM | 0.69 nM | 1.53 nM | 1.93 nM | 0.48 nM | 1.49 nM | 194 nM |
| Cc1nn(C)c2c1/C=C/c1n[nH]c3ccc(cc13)-c1cnn(C)c1O[C@@H](C)CN(C)C2 [Example 120, (10S,17E)-8,10,12,14,16-pentamethyl-2,10,11,12,13,14-hexahydro-8H-3,5-ethenotripyrazolo[3,4-f:3′,4′-j:4″,3″- n][1,4]oxazacyclopentadecine] | – | – | – | – | 7.76 nM | 0.08 nM | 0.33 nM | 99.8 nM | 41.3 nM | 7.91 nM | 2.62 nM | 0.27 nM | 5.8 nM | 0.12 nM | 1.82 nM | 112 nM |
| CCN1Cc2c(c(OC(C)C)nn2CCO)/C=C/c2n[nH]c3cc(F)c(cc23)-c2cnn(C)c2O[C@@H](C)C1 [Example 216, 2-{(10S,17E)-12-ethyl-19-fluoro-8,10-dimethyl-16-[(propan-2-yl)oxy]-2,8,10,11,12,13-hexahydro-14H-3,5-ethenotripyrazolo[3,4-f:3′,4′-j:4″,3″- n][1,4]oxazacyclopentadecin-14-yl}ethan-1-ol] | – | – | – | – | 0.47 nM | 1.28 nM | 0.44 nM | 28.9 nM | 2.43 nM | 2.22 nM | 0.37 nM | 5.39 nM | 0.63 nM | 2.02 nM | 2.04 nM | 115 nM |
